Test results published in patent publication US20240025880A1 (CHIESI FARMACEUTICI S.P.A., priority 2020, published 2024).

What follows are compounds tested against T1, h P2X3 (Homo sapiens, UniProt P56373) (assay: In vitro electrophysiology assay for P2X3 (automated whole-cell patch clamp, α,β-MeATP agonist)). Details: Table 2; 800 nM α,β-MeATP, peak current; read-out: h P2X3 (pIC50 range of activity) (converted).
T1 sequence (P56373 1-397): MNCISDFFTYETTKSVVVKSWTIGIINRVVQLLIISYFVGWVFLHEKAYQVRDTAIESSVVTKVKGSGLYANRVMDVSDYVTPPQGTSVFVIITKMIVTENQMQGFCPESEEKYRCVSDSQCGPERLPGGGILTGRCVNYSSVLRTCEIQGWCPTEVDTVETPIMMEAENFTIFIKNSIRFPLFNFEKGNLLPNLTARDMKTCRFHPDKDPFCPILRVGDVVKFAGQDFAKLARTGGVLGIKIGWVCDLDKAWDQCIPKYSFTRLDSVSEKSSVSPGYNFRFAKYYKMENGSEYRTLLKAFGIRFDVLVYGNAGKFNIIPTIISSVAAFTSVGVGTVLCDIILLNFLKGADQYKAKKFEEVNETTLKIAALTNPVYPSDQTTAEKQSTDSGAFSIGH
Type: cell-based
Procedure: In Vitro Electrophysiology Assay for P2X3
Cells expressing P2X3 receptors were grown according to standard practice and maintained at 37° C. in a 5% humidified CO2 atmosphere. The cells were seeded into T175 flask 2 days prior to the day of the assay and dissociated from the flasks using TrypLE when grown to confluence of 80-90%. The dissociated cells were resuspended in serum free media at a cell density of 3×10^6 cells/ml and loaded onto the Sophion Qube automated patch-clamp system. The extracellular assay buffer contained 145 mM NaCl, 4 mM KCl, 2 mM CaCl2, 1 mM MgCl2, 10 mM HEPES, and 10 mM glucose at pH 7.4. The intracellular assay solution contained 140 mM CsF, 10 mM NaCl, 10 mM EGTA, 10 mM HEPES at pH 7.2. Agonist stock solutions were prepared in H2O and diluted in bath solution prior to use. All antagonists were prepared as 10 mM stock solutions in DMSO and diluted in bath solution prior to use. All experiments were performed under the whole-cell patch clamp configuration at room temperature with 384 individual cells being voltage clamped at −60 mV simultaneously on the Sophion Qube instrument. Two baseline responses were established with the application of α,β-MeATP (800 nM), with the subsequent agonist applications being washed out using extracellular assay buffer containing 0.5 U/ml apyrase. Following the second agonist application, antagonist was incubated in the absence of α,β-MeATP for 10 minutes. After antagonist preincubation, 800 nM α,β-MeATP and antagonist were co-administered to determine the inhibitory effect of the antagonist. One concentration of an antagonist was assessed against a single cell, with different concentrations of the antagonist applied to other cells on the 384 recording substrate. The control P2X3 current amplitude was taken from the peak current amplitude from the second agonist response prior to preincubation with antagonist. The peak P2X3 current amplitude in the presence of antagonist was used to calculate the inhibitory effect at each concentration of the antagonist according to the following equation:
Percentage inhibition of P2X3=(P2X3 control peak amplitude−P2X3 antagonist peak amplitude)/P2X3 control peak amplitude)*100
Concentration-response curves were constructed from ten different concentrations with each concentration of antagonist tested on at least two individual cells. The concentration of the antagonist to inhibit P2X3 current by 50% (IC50) was determined by fitting the data with the following equation:
Y=a+[(b−a)/(1+10^((log c−x)d)]
Where ‘a’ is minimum response, ‘b’ is maximum response, ‘c’ is IC50 and ‘d’ is Hill slope.

IC50	SMILES
< 316 nM	Cc1ccc(CNc2ncnc3c(OCC4(C)COC4)cc(-c4ccc(F)cc4)cc23)nn1 [Example 50, 6-(4-fluorophenyl)-8-[(3-methyloxetan-3-yl)methoxy]-N-[(6-methylpyridazin-3-yl)methyl]quinazolin-4-amine]
316 to 3160 nM	CC(=O)N1CCC(Oc2cc(-c3ccc(F)cc3)cc3c(N[C@H](C)c4cnc(C(F)(F)F)nc4)ncnc23)CC1 [Example 35, (R)-1-(4-((6-(4-fluorophenyl)-4-((1-(2-(trifluoromethyl)pyrimidin-5-yl)ethyl)amino)quinazolin-8-yl)oxy)piperidin-1-yl)ethan-1-one]
< 316 nM	Cc1ccc(CNc2ncnc3c(OCc4nnc(C5CC5)s4)cc(-c4ccc(F)cc4)cc23)nn1 [Example 60, 8-[(5-cyclopropyl-1,3,4-thiadiazol-2-yl)methoxy]-6-(4-fluorophenyl)-N-[(6-methylpyridazin-3-yl)methyl]quinazolin-4-amine]
316 to 3160 nM	Cc1ccc([C@@H](C)Nc2ncnc3c(S(=O)(=O)N4CCNCC4)cc(-c4ccc(F)cc4)cc23)nn1 [Example 24, (R)-6-(4-fluorophenyl)-N-(1-(6-methylpyridazin-3-yl)ethyl)-8-(piperazin-1-ylsulfonyl)quinazolin-4-amine]
316 to 3160 nM	C[C@@H](Nc1ncnc2c(OCC3(C(=O)O)CCCCC3)cc(-c3ccc(F)cc3)cc12)c1cnc(C(F)(F)F)nc1 [Example 48, (R)-1-(((6-(4-fluorophenyl)-4-((1-(2-(trifluoromethyl)pyrimidin-5-yl)ethyl)amino)quinazolin-8-yl)oxy)methyl)cyclohexane-1-carboxylic acid]
< 316 nM	Cc1ccc(CNc2ncnc3c(OCC(=O)N[C@H]4CCC[C@H]4C(=O)O)cc(-c4ccc(F)cc4)cc23)nn1 [Example 45, (1R,2S)-2-(2-((6-(4-fluorophenyl)-4-(((6-methylpyridazin-3-yl)methyl)amino)quinazolin-8-yl)oxy)acetamido)cyclopentane-1-carboxylic acid]
316 to 3160 nM	CNS(=O)(=O)c1cc(-c2ccc(F)cc2)cc2c(NC(C)c3nnc(C)s3)ncnc12 (stereo not drawn) [Example 23]
< 316 nM	C[C@@H](Nc1ncnc2c(OCc3cc(O)no3)cc(-c3ccc(F)cc3)cc12)c1cnc(C(F)(F)F)nc1 [Example 38, (R)-5-(((6-(4-fluorophenyl)-4-((1-(2-(trifluoromethyl)pyrimidin-5-yl)ethyl)amino)quinazolin-8-yl)oxy)methyl)isoxazol-3-ol]
< 316 nM	Cc1ccc(CNc2ncnc3c(OCC#N)cc(-c4ccc(F)cc4)cc23)nn1 [Example 53]
< 316 nM	Cc1ccc([C@@H](C)Nc2ncnc3c(S(=O)(=O)N(C)C)cc(-c4ccc(F)cc4)cc23)nn1 [Example 13, (R)-6-(4-fluorophenyl)-N,N-dimethyl-4-((1-(6-methylpyridazin-3-yl)ethyl)amino)quinazoline-8-sulfonamide]
316 to 3160 nM	CC(=O)N[C@H]1CC[C@@H](Oc2cc(-c3ccc(F)cc3)cc3c(N[C@H](C)c4cnc(C(F)(F)F)nc4)ncnc23)CC1 [Example 32, N-((1S,4s)-4-((6-(4-fluorophenyl)-4-(((R)-1-(2-(trifluoromethyl)pyrimidin-5-yl)ethyl)amino)quinazolin-8-yl)oxy)cyclohexyl)acetamide]
316 to 3160 nM	CC(=O)N1CC[C@@H](Oc2cc(-c3ccc(F)cc3)cc3c(N[C@H](C)c4cnc(C(F)(F)F)nc4)ncnc23)C1 [Example 30]
< 316 nM	CON(C)C(=O)COc1cc(-c2ccc(F)cc2)cc2c(NCc3ccc(C)nn3)ncnc12 [Example 54, 2-[6-(4-fluorophenyl)-4-[(6-methylpyridazin-3-yl)methylamino]quinazolin-8-yl]oxy-N-methoxy-N-methyl-acetamide]
316 to 3160 nM	Cc1nc([C@@H](C)Nc2ncnc3c(S(=O)(=O)N4CCNCC4)cc(-c4ccc(F)cc4)cc23)no1 [Example 25, (R)-6-(4-fluorophenyl)-N-(1-(5-methyl-1,2,4-oxadiazol-3-yl)ethyl)-8-(piperazin-1-ylsulfonyl)quinazolin-4-amine]
316 to 3160 nM	Cc1ccc(CNc2ncnc3c(OC4COC4)cc(-c4ccc(F)cc4)cc23)nn1 [Example 63, 6-(4-fluorophenyl)-N-((6-methylpyridazin-3-yl)methyl)-8-(oxetan-3-yloxy)quinazolin-4-amine]
316 to 3160 nM	C[C@@H](Nc1ncnc2c(OC3CCN(CC(F)(F)F)C3)cc(-c3ccc(F)cc3)cc12)c1cnc(C(F)(F)F)nc1 (stereo partly drawn) [Example 33, 6-(4-fluorophenyl)-8-((1-(2,2,2-trifluoroethyl)pyrrolidin-3-yl)oxy)-N-((R)-1-(2-(trifluoromethyl)pyrimidin-5-yl)ethyl)quinazolin-4-amine]
< 316 nM	Cc1cnc(-c2cc(OCC(=O)NS(=O)(=O)c3ccccc3)c3ncnc(NCc4ccc(C)nn4)c3c2)nc1 [Example 49, Ammonium (2-((4-(((6-methylpyridazin-3-yl)methyl)amino)-6-(5-methylpyrimidin-2-yl)quinazolin-8-yl)oxy)acetyl)(phenylsulfonyl) amide]
3160 to 31600 nM	Cc1ccc([C@@H](C)Nc2ncnc3c(SC4COC4)cc(-c4ccc(F)cc4)cc23)nn1 [Example 28, (R)-6-(4-fluorophenyl)-N-(1-(6-methylpyridazin-3-yl)ethyl)-8-(oxetan-3-ylthio)quinazolin-4-amine]
316 to 3160 nM	Cc1ccc([C@@H](C)Nc2ncnc3c(OCC(F)F)cc(-c4ccc(F)cn4)cc23)nn1 [Example 5, (R)-8-(2,2-difluoroethoxy)-6-(5-fluoropyridin-2-yl)-N-(1-(6-methylpyridazin-3-yl)ethyl)quinazolin-4-amine]
< 316 nM	Cc1ccc(CNc2ncnc3c(OCc4noc(C)n4)cc(-c4ccc(F)cc4)cc23)nn1 [Example 58, 6-(4-fluorophenyl)-8-[(5-methyl-1,2,4-oxadiazol-3-yl)methoxy]-N-[(6-methylpyridazin-3-yl)methyl]quinazolin-4-amine]
316 to 3160 nM	CCOC(=O)[C@H]1CCC[C@H]1NC(=O)COc1cc(-c2ccc(F)cc2)cc2c(NCc3ccc(C)nn3)ncnc12 [Example 46, Ethyl (1S,2R)-2-(2-((6-(4-fluorophenyl)-4-(((6-methylpyridazin-3-yl)methyl)amino)quinazolin-8-yl)oxy)acetamido)cyclopentane-1-carboxylate]
316 to 3160 nM	C[C@@H](Nc1ncnc2c(OCC(=O)NC3(C(=O)O)CC3)cc(-c3ccc(F)cc3)cc12)c1cnc(C(F)(F)F)nc1 [Example 44, (R)-1-(2-((6-(4-fluorophenyl)-4-((1-(2-(trifluoromethyl)pyrimidin-5-yl)ethyl)amino)quinazolin-8-yl)oxy)acetamido)cyclopropane-1-carboxylic acid]
< 316 nM	C[C@@H](Nc1ncnc2c(OCC3(O)COC3)cc(-c3ccc(F)cc3)cc12)c1cnc(C(F)(F)F)nc1 [Example 37, (R)-3-(((6-(4-fluorophenyl)-4-((1-(2-(trifluoromethyl)pyrimidin-5-yl)ethyl)amino)quinazolin-8-yl)oxy)methyl)oxetan-3-ol]

Same assay, conditions: comparative example; read-out: activity on receptor P2X3 expressed as pIC50 (converted)

IC50	SMILES
> 31600 nM	O=C(NC1CCOc2ccc(-c3ccc(F)cc3)cc21)c1cnc(C(F)(F)F)nc1 (stereo not drawn) [comparative Example A, N-(6-(4-fluorophenyl)chroman-4-yl)-2-(trifluoromethyl)pyrimidine-5-carboxamide, reference compound]
